Test results reported in US20240052421A1, “METHOD OF IDENTIFYING AND TREATING MITOCHONDRIAL SUBTYPE TUMORS” (The Trustees of Columbia University in the City of New York, priority 2020, published 2024).

How the values were obtained:
Assay type in all cases: cell-based, human
[1] = tested on: GBM PDCs; assay: Viability of GBM PDCs (MTC and GPM) treated with inhibitors of glycolysis; details: nine MTC and nine GPM PDCs, 72 h treatment
Text: FIGS. 9A-K show MTC PDCs are distinctly sensitive to mitochondrial inhibition. […] Data are mean±s.d. of n≥3 replicates for each PDC from one representative experiment. […] Middle: correlation analysis of MTC (blue) and GPM (red) activity in PDCs (n=25 MTC PDCs and n=21 GPM PDCs; Spearman's correlation, p=−0.51, P=0.0003). Bottom: enrichment of fCNV gain and loss of mitochondrial and glycolytic-related genes in MTC PDCs (n=25) and GPM PDCs (n=21). The number of genes amplified/deleted in each tumor is color coded (amplifications, red to white; deletions, blue to white). FIGS. 9F and G show viability curves of nine MTC PDCs and nine GPM PDCs each derived from an independent patient treated with either FX-11 (F) or DEAB (G). Data are mean±s.d. from n≥4 replicates for each PDC from one representative experiment. […] Data are mean±s.d. of one representative experiment assessed by n=30 replicates for each PDC; **P=0.0022. […] In all experiments, significance was evaluated by two-tailed t-test, unequal variance. […]
(§1) Compound treatment of PDCs. […] Viability was determined using CellTiterGlo assay reagent (Promega, no. G7570) and the GloMax-Multi+Microplate Multimode Reader (Promega).

[2] = tested on: MTC PDCs; assay: Viability of MTC patient-derived cells (PDCs) after compound treatment, CellTiterGlo; details: 13 MTC PDCs, 72 h treatment, serial dilutions
Text: (§2) FIGS. 9A-K show MTC PDCs are distinctly sensitive to mitochondrial inhibition. […] Data are mean±s.d. of n≥3 replicates for each PDC from one representative experiment. […] Middle: correlation analysis of MTC (blue) and GPM (red) activity in PDCs (n=25 MTC PDCs and n=21 GPM PDCs; Spearman's correlation, p=−0.51, P=0.0003). Bottom: enrichment of fCNV gain and loss of mitochondrial and glycolytic-related genes in MTC PDCs (n=25) and GPM PDCs (n=21). The number of genes amplified/deleted in each tumor is color coded (amplifications, red to white; deletions, blue to white). FIGS. 9F and G show viability curves of nine MTC PDCs and nine GPM PDCs each derived from an independent patient treated with either FX-11 (F) or DEAB (G). Data are mean±s.d. from n≥4 replicates for each PDC from one representative experiment. […] Representative MRs with differential activity (n=304 tumors, n=2,799 cells from dataset 1, n=9,652 cells from dataset 2 and n=4,916 cells from dataset 3; two-sided MWW test, FDR<0.01) in TCGA and at least two out of three single-cell datasets are shown (two-sided MWW-GST test, log it(NES)>0.58, FDR<0.01). Nodes represent MRs and target genes, while lines represent interactions. […] Data are mean±s.d. from one representative experiment including n=3 independent infections for each PDC; **P=0.0010 and 0.0013 for PDC-002 shRNA1 and shRNA2 versus vector, respectively; **P=0.0030 and 0.0023 for PDC-026 shRNA1 and shRNA2 versus vector, respectively; *P=0.0285 for PDC-078 shRNA1 versus vector; *P=0.0142 for PDC-021 shRNA1 versus vector. […] Data are mean±s.d. of one representative experiment assessed by n=30 replicates for each PDC; **P=0.0022. […] Data are mean±s.d. of n=3 independent experiments for each PDC, each performed in triplicate. Bars on the right-hand side of the graph indicate mean±s.e.m. of values observed in the two sets of PDCs; n=7 MTC PDCs and n=7 GPM PDCs, each derived from an independent patient; ***P=0.00006. Experiments in A-D, F, G, I and J were repeated two times with similar results. In all experiments, significance was evaluated by two-tailed t-test, unequal variance.
(§3) Therefore, we tested the sensitivity of 13 MTC and ten GPM PDCs to compounds that interfere with OXPHOS and mitochondrial metabolism. […] Conversely, GPM PDCs were resistant to all four compounds (FIG. 9A-D). […] Furthermore, the complementary fCN gains and losses of MTC and GPM gene sets robustly correlated with mitochondrial inhibitor sensitivity score (FIG. 9E). Treatment of GBM PDCs with inhibitors of glycolysis (DEAB and FX-11)^51 had no effect regardless of the metabolic class of PDC (FIGS. 9F,G).
as §1

[3] = tested on: GPM PDCs; assay: Viability of GPM patient-derived cells (PDCs) after compound treatment, CellTiterGlo; details: ten GPM PDCs, 72 h treatment, serial dilutions
Text: as §2, §3, §1

[4] = tested on: FGFR3-TACC3 PDOs; assay: Viability of FGFR3-TACC3 positive GBM PDOs, serial dilution of mitochondrial inhibitors
Protocol: (§4) The objective of the study is to test the activity of IM-156, a novel mitochondrial inhibitor currently in clinical testing, in vitro in 25 GBM-PDO organoids previously classified molecularly as mitochondrial (MTC, 13 organoids) or glycolytic/plurimetabolic (GPM, 12 organoids) plus 2 GBM-PDO harboring a FGFR3-TACC3 (F3T3) fusion.
(§5) Using IM-156 (0 μM -15 μM, 1/3 dilution, 7 points and 0-45 μM, 1/3 dilution, 10 points), […], and 2 FGFR3-TACC3 positive GBM PDOs were tested. Seventy-two hours later viability was assessed and the half-maximal inhibitory concentration was calculated. The activity (IC50) of IM-156 was compared with IACS-010759, Metformin, Tigecycline, and Menadione, 4 inhibitors of mitochondrial activity/respiration. […] FGFR3-TACC3 fusion expressing cells had been previously characterized as mitochondrial GBM.

[5] = tested on: glycolytic/plurimetabolic PDOs; assay: Viability of glycolytic/plurimetabolic GBM PDOs, serial dilution of mitochondrial inhibitors
Protocol: as §4, §5

[6] = tested on: mitochondrial PDOs; assay: Viability of mitochondrial GBM patient-derived organoids (PDOs), serial dilution of mitochondrial inhibitors
Protocol: as §4, §5

[7] = 15 μM as highest concentration, 72 h

CCN(CC)c1ccc(C=O)cc1 [DEAB]
effect on viability of GBM PDCs regardless of metabolic class [1]: no effect

CCCc1c(O)c(O)c(C(=O)O)c2cc(Cc3ccccc3)c(C)cc12 [FX-11]
effect on viability of GBM PDCs regardless of metabolic class [1]: no effect

Cc1nc(-c2nc(-c3ccc(OC(F)(F)F)cc3)no2)nn1Cc1cccc(N2CCC(S(C)(=O)=O)CC2)c1 [IACS-010759]
effect on viability of MTC PDCs [2]: reduced the viability
effect on viability of GPM PDCs [3]: resistant

NC(=Nc1ccc(OC(F)(F)F)cc1)N=C(N)N1CCCC1 [IM-156]
number of FGFR3-TACC3 PDOs in which the drug was effective [4, 7]: 2 out of 2
sensitivity of FGFR3-TACC3 fusion expressing cells ([4]; 2 FGFR3-TACC3 positive GBM PDOs): distinct sensitivity
number of glycolytic/plurimetabolic PDOs in which the drug was effective [5, 7]: 2 out of 10
change in sensitivity of glycolytic/plurimetabolic GBM PDOs on increasing maximum concentration ([5]; maximum concentration raised from 15 μM to 45 μM): significant increase in sensitivity
number of mitochondrial PDOs in which the drug was effective [6, 7]: 12 out of 14
effectiveness in MTC models as opposed to GPM subtype ([6]; MTC versus GPM patient-derived tumor models): significantly more effective
IC50 ([6]; mitochondrial PDOs, 15 μM as highest concentration, viability at 72 h, read-out: Median IC50): 6.38 µM

CC1=CC(=O)c2ccccc2C1=O [menadione]
effect on viability of MTC PDCs [2]: reduced the viability
effect on viability of GPM PDCs [3]: resistant

CN(C)C(=N)N=C(N)N [metformin]
effect on viability of MTC PDCs [2]: reduced the viability
effect on viability of GPM PDCs [3]: resistant

CN(C)c1cc(NC(=O)CNC(C)(C)C)c(O)c2c1C[C@H]1C[C@H]3[C@H](N(C)C)C(O)=C(C(N)=O)C(=O)[C@@]3(O)C(O)=C1C2=O [tigecycline]
effect on viability of MTC PDCs [2]: reduced the viability
effect on viability of GPM PDCs [3]: resistant
